Data as given in ChEMBL document CHEMBL4823249, “Discovery of a Pyrimidinedione Derivative as a Potent and Orally Bioavailable Axl Inhibitor” (J Med Chem, 2021).
The source made the active and inactive calls. The rule behind the calls is not given here.

Columns and labels:
[1] = Half life in ICR mouse at 1 mg/kg, iv measured upto 24 hrs by LC-MS analysis; assay type: ADME, organism-based; conditions: in vivo
[2] = target: T1, Tyrosine-protein kinase receptor UFO (Mus musculus) (UniProt Q00993); experiment: Inhibition of AXL in mouse BaF3/TEL-AXL cells assessed as reduction in phosphorylation of AXL at 1 to 15 nM after 2 hrs by Western blotting analysis; assay type: cell-based; conditions: dose 1-15 nM
T1 sequence (whole entry): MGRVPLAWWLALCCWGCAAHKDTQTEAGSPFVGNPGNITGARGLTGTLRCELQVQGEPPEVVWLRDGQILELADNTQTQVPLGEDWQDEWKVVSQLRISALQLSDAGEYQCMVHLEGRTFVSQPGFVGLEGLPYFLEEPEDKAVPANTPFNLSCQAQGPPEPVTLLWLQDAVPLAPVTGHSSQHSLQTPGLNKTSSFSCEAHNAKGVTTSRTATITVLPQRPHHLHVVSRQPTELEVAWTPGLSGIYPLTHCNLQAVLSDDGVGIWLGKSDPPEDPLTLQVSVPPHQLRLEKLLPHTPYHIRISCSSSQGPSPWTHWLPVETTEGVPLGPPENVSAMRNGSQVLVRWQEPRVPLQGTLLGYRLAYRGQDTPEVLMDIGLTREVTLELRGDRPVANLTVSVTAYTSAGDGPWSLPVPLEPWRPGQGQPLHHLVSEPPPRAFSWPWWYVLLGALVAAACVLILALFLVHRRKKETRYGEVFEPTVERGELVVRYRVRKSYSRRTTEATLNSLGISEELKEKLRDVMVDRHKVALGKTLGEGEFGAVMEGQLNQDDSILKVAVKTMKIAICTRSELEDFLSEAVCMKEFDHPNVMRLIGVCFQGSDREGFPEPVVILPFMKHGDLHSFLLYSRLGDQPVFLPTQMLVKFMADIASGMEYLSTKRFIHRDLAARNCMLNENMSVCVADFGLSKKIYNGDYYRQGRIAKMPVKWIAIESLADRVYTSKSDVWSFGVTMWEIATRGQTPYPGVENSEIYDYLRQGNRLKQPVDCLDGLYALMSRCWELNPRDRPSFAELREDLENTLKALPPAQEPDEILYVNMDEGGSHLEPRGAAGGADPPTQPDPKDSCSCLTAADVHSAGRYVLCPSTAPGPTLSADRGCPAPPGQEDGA

[3] = tested on: HL-60; experiment: Antiproliferative activity against human HL-60 cells incubated for 72 hrs by SRB or CCK8 assay; assay type: functional, cell-based; conditions: HL-60, 72 h
[4] = target: Insulin-like growth factor 1 receptor (Homo sapiens, UniProt P08069); experiment: Inhibition of human IGF1R (959 to end residues) using KKKSPGEYVNIEFG as substrate after 40 mins in presence of [gamma-33ATP] by scintillation counting based radiometry assay
Chain of Insulin-like growth factor 1 receptor (P08069 31-736 limits assumed): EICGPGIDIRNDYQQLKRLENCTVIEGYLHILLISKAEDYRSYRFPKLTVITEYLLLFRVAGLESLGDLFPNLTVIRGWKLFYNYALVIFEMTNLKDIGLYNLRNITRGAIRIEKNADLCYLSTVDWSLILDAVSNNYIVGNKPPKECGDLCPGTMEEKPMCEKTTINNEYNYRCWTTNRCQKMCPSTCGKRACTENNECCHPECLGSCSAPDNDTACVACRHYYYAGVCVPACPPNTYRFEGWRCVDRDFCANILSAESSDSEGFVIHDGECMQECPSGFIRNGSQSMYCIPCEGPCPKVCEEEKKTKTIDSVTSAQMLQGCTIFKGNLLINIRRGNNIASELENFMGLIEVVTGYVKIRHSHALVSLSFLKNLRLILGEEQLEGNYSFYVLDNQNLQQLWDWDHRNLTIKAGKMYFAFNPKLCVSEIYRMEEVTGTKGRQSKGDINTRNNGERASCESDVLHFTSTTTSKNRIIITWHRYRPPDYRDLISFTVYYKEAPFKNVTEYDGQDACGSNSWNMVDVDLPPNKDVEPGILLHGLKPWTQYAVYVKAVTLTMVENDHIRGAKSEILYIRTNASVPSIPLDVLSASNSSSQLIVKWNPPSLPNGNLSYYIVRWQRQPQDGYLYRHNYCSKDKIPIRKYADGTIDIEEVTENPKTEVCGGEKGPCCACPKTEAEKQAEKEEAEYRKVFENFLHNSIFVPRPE
Chain of Insulin-like growth factor 1 receptor (P08069 741-1367 limits assumed): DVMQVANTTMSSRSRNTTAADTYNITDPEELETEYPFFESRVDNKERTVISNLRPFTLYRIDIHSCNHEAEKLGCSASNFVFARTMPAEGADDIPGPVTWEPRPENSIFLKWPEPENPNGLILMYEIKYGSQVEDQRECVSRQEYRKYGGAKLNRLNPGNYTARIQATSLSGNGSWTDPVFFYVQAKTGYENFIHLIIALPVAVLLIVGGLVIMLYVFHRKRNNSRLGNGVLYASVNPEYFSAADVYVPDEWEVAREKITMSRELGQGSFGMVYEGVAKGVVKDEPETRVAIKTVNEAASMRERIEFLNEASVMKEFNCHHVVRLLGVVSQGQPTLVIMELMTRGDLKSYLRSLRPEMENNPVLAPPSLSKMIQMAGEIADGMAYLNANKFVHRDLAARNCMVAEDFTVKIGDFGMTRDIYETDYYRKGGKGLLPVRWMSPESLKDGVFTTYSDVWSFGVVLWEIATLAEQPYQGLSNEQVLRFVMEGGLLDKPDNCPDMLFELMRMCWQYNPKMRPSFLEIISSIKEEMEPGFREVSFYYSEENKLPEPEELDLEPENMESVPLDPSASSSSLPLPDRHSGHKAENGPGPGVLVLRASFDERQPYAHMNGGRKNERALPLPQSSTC

[5] = target: Fibroblast growth factor receptor 1 (Homo sapiens, UniProt P11362); experiment: Inhibition of recombinant human FGFR1 (456 to 765 residues) using KKKSPGEYVNIEF as substrate incubated for 40 mins in presence of [gamma-33ATP] by radiometric scintillation counting analysis
Chain of Fibroblast growth factor receptor 1 (P11362 whole entry, the tested form may be a part): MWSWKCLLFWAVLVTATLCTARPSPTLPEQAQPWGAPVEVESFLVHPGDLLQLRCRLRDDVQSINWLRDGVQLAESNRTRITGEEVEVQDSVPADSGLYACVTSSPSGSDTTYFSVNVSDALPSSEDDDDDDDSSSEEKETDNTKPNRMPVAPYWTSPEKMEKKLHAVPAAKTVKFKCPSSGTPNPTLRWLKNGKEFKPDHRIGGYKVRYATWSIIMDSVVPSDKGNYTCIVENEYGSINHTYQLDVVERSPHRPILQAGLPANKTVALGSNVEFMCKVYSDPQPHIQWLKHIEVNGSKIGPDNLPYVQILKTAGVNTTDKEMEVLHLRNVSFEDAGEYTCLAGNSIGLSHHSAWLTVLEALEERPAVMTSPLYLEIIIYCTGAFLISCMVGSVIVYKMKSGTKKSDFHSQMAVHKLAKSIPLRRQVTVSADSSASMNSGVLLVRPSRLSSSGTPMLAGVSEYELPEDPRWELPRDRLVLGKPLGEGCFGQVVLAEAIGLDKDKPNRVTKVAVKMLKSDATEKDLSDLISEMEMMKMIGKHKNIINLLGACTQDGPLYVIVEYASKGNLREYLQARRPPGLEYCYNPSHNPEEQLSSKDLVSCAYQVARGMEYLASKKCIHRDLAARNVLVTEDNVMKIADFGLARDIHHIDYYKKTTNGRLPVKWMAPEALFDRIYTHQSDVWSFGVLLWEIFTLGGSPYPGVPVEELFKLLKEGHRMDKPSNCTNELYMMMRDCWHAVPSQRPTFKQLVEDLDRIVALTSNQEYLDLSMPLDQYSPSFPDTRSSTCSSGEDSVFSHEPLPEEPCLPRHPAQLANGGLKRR

[6] = target: Tyrosine-protein kinase JAK1 (Homo sapiens, UniProt P23458); experiment: Inhibition of human JAK1 (866 to end residues) using GEEPLYWSFPAKKK as substrate after 40 mins in presence of [gamma-33ATP] by scintillation counting based radiometry assay
Chain of Tyrosine-protein kinase JAK1 (P23458 whole entry): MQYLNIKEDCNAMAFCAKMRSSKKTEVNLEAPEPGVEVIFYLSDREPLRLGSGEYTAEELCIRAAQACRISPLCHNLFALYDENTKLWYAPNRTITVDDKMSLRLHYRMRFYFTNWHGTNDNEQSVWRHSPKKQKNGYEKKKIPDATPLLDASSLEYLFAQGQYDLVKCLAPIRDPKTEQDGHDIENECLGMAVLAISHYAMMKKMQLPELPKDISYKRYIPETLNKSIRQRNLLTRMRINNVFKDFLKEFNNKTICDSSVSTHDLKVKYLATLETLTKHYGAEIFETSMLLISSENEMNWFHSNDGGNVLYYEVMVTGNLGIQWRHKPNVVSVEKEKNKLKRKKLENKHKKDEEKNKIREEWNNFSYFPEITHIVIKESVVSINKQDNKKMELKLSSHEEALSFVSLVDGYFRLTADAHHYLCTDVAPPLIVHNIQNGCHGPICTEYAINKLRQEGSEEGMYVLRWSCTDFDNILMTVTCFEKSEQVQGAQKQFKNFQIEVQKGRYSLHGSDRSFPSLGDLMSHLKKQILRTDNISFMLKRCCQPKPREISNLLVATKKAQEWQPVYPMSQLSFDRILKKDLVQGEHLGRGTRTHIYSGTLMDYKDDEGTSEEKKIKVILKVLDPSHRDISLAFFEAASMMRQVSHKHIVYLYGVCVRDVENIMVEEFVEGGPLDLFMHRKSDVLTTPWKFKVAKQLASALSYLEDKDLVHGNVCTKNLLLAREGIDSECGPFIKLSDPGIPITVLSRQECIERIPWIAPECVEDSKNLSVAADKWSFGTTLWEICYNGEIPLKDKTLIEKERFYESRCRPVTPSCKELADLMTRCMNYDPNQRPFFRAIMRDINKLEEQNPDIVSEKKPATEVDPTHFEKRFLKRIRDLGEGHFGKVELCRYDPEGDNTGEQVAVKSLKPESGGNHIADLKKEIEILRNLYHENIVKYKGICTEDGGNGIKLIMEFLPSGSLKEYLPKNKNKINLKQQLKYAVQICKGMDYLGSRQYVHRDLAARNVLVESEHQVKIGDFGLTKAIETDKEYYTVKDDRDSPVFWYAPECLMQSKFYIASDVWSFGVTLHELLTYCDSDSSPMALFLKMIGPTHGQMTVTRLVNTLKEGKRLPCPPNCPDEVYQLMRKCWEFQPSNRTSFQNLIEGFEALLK

[7] = tested on: HT-29; experiment: Antiproliferative activity against human HT-29 cells incubated for 72 hrs by SRB or CCK8 assay; assay type: functional, cell-based; conditions: HT-29, 72 h
[8] = target: Receptor-type tyrosine-protein kinase FLT3 (Homo sapiens, UniProt P36888); experiment: Inhibition of recombinant human FLT3 (564 to end residues) using EAIYAAPFAKKK as substrate incubated for 40 mins in presence of [gamma-33ATP] by scintillation counting based radiometry assay
Chain of Receptor-type tyrosine-protein kinase FLT3 (P36888 whole entry, the tested form may be a part): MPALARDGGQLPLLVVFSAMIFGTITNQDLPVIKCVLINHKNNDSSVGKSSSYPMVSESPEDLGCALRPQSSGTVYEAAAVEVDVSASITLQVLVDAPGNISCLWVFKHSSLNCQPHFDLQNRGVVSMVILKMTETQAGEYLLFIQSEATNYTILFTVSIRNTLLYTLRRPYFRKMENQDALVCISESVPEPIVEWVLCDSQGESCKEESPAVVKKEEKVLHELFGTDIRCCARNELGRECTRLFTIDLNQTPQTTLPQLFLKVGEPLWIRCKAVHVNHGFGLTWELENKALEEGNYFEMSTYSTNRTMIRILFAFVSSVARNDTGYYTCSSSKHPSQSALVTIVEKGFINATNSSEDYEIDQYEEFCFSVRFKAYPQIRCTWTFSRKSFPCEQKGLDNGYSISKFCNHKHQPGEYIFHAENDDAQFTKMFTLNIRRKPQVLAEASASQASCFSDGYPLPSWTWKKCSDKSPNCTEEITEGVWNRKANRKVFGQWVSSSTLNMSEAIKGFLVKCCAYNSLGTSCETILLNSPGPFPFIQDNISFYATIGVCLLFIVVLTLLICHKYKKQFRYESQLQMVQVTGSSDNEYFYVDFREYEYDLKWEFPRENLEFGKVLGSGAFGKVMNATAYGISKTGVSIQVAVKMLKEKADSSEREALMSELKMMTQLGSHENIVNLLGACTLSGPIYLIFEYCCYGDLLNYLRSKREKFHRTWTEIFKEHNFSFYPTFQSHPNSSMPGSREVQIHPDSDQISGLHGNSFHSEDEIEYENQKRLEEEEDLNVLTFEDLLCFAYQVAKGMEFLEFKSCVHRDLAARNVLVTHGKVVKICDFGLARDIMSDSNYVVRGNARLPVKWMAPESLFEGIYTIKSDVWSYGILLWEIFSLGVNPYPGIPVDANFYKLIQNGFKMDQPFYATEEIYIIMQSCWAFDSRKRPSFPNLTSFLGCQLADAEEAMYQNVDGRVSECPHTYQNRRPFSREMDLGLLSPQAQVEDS

[9] = target: CDK4/Cyclin D3 (Homo sapiens, UniProt P11802); experiment: Inhibition of recombinant full length human CDK4/CyclinD3 using Rb fragment as substrate incubated for 40 mins in presence of [gamma-33ATP] by scintillation counting based radiometry assay; assay type: protein-complex assay
Chain of CDK4/Cyclin D3 (P11802 whole entry, the tested form may be a part): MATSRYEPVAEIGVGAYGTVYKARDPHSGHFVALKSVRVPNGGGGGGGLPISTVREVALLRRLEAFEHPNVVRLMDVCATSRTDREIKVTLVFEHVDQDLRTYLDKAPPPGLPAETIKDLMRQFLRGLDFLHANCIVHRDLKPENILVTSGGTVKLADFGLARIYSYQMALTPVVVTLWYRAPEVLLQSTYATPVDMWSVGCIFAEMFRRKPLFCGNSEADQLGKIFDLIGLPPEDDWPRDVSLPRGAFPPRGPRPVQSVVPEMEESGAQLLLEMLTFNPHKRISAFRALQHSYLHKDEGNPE
Chain of CDK4/Cyclin D3 (P30281 whole entry, further chain, the tested form may be a part): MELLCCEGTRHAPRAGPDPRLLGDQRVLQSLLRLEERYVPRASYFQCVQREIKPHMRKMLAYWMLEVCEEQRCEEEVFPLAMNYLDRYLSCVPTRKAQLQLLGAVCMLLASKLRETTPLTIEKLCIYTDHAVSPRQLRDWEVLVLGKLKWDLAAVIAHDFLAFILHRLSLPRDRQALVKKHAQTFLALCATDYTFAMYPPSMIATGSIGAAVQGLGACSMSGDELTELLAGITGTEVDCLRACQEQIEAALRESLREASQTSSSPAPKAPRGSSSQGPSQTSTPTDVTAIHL

[10] = tested on: U-87 MG; experiment: Antitumor activity against human U-87MG cells xenografted in BALB/c nude mouse assessed as tumor growth inhibition at 5 mg/kg, po administered once daily for 14 days by caliper method; assay type: functional, U-87MG ATCC; conditions: 336 h, time 14 day, read-out: TGI

With `CC(C)n1cc(C(=O)Nc2ccc(Oc3ccnc(NC(=O)C4CC4)c3)c(F)c2)c(=O)n(-c2ccc(F)cc2)c1=O` the half-life [1] was 5.57 h, the inhibition [2] was “Active” and the IC50 [3] was over 10000 nM. The IC50 [4] was over 1000 nM, the IC50 [5] was over 1000 nM and the IC50 [6] was over 1000 nM. The IC50 [7] was over 10000 nM, the IC50 [8] was over 1000 nM and the IC50 [9] was over 1000 nM. For the same molecule, the inhibition in vivo at 5 mg/kg [10] was 62.3%.
